US7507739B2, “6-[(substituted)phenyl]triazolopyrimidines as anticancer agents” (Wyeth, priority 2003, dated 2009)
Marks after values point to notes of the source that are not given here.

Columns and labels:
Assay type in all cases: in vivo, athymic mice
[1] = test system: HT-29 Human Colon Carcinoma; experiment: Human tumor xenograft test, HT-29
Experimental: (§1) The ability of compounds of this invention to inhibit tumor growth in animals is studied in the athymic mouse xenograft standard pharmacological test. Female nu/nu mice in an outbred albino background are obtained from Charles River Laboratories (Wilmington, Mass.). Animals are injected subcutaneously on the flank with the desired tumor cell suspension. Several days later, mice with tumors of approximately 150 mm^3 are selected from those injected (staged) and randomly distributed into groups of 5-10. The day of staging is called day 0. Compounds of the invention, usually formulated in saline (exceptions are noted in tables), are administered to animals by intravenous injection or oral gavage on various schedules starting on day 0 or 1, as noted in the tables. The control group in each experiment is dosed with vehicle on the same schedule. Tumor size is measured every 3-7 days with calipers in two orthogonal dimensions, and tumor volume is calculated from the formula volume=[(length×width^2)/2].
(§2) Tumor/Control (T/C) is obtained by dividing the mean tumor volume of the treated group by the mean tumor volume of the control group on each measurement day. A treatment dose is defined as active if it produced a statistically significant T/C of 0.50 or less. A p value≦0.05, determined by one-side Student's t-test, is required for statistical significance. A treatment dose is defined as toxic if more than 10% of the animals died from a compound-related toxicity.

[2] = test system: H157 Human Non-Small Cell Lung Carcinoma; experiment: Human tumor xenograft test, H157; settings: for T/C on day 0 / T/C on day 7 / T/C on day 11 / T/C on day 14: days 0, 6
Experimental: as §1, §2

[3] = test system: HCT-15 Human Colon Carcinoma; experiment: Human tumor xenograft test, HCT-15; settings: for T/C on day 0 / T/C on day 7 / T/C on day 13 / T/C on day 20: days 1, 8, 15
Experimental: as §1, §2

Compound: CNCCCOc1cc(F)c(-c2c(Cl)nc3ncnn3c2N[C@@H](C)C(F)(F)F)c(F)c1.Cl [Example 2a, 5-Chloro-6-{2,6-difluoro-4-[3-(methylamino)propoxy]phenyl}-N-[(1S)-2,2,2-trifluoro-1-methylethyl][1,2,4]triazolo[1,5-a]pyrimidin-7-amine hydrogen chloride]
- T/C on day 0 ([1]; HT-29, 25 mg/kg IV, days 1, 7): 1.00
- T/C on day 7 ([1]; HT-29, 25 mg/kg IV, days 1, 7): 0.44**
- T/C on day 10 ([1]; HT-29, 25 mg/kg IV, days 1, 7): 0.34**
- T/C on day 13 ([1]; HT-29, 25 mg/kg IV, days 1, 7): 0.26**
- T/C on day 21 ([1]; HT-29, 25 mg/kg IV, days 1, 7): 0.43**
- T/C on day 24 ([1]; HT-29, 25 mg/kg IV, days 1, 7): 0.46**
- tumor growth inhibition (activity call) ([1]; HT-29, 25 mg/kg intravenously on days 1 and 7): inhibited the growth
- T/C on day 0 ([2]; H157, 7.5 mg/kg IV): 1.04
- T/C on day 7 ([2]; H157, 7.5 mg/kg IV): 0.54**
- T/C on day 11 ([2]; H157, 7.5 mg/kg IV): 0.42**
- T/C on day 14 ([2]; H157, 7.5 mg/kg IV): 0.45**
- T/C on day 0 ([2]; H157, 15 mg/kg IV): 1.02
- T/C on day 7 ([2]; H157, 15 mg/kg IV): 0.55*
- T/C on day 11 ([2]; H157, 15 mg/kg IV): 0.44*
- T/C on day 14 ([2]; H157, 15 mg/kg IV): 0.42**
- T/C on day 0 ([2]; H157, 25 mg/kg IV): 1.03
- T/C on day 7 ([2]; H157, 25 mg/kg IV): 0.62*
- T/C on day 11 ([2]; H157, 25 mg/kg IV): 0.29**
- T/C on day 14 ([2]; H157, 25 mg/kg IV): 0.30**
- tumor growth inhibition (activity call) ([2]; H157 NSCLC, 25, 15 and 7.5 mg/kg intravenously on days 0 and 6): inhibited tumor growth
- T/C on day 0 ([3]; HCT-15, 10 mg/kg IV): 1.00
- T/C on day 7 ([3]; HCT-15, 10 mg/kg IV): 0.81
- T/C on day 13 ([3]; HCT-15, 10 mg/kg IV): 1.03
- T/C on day 20 ([3]; HCT-15, 10 mg/kg IV): 0.75
- T/C on day 0 ([3]; HCT-15, 20 mg/kg IV): 1.00
- T/C on day 7 ([3]; HCT-15, 20 mg/kg IV): 0.86
- T/C on day 13 ([3]; HCT-15, 20 mg/kg IV): 0.50*
- T/C on day 20 ([3]; HCT-15, 20 mg/kg IV): 0.43*
- tumor growth inhibition (activity call) ([3]; HCT-15, 20 mg/kg intravenously on days 1, 8, and 15): active
- T/C on day 0 ([3]; HCT-15, 25 mg/kg IV): 1.00
- T/C on day 7 ([3]; HCT-15, 25 mg/kg IV): 0.78
- T/C on day 13 ([3]; HCT-15, 25 mg/kg IV): 0.60
- T/C on day 20 ([3]; HCT-15, 25 mg/kg IV): 0.44
